In one assay the target is T1, PI3Kγ (Homo sapiens, UniProt P48736).
T1 construct: host or cells: THP-1
The assay can be described thus: PI3Kγ cellular assay in THP-1 cells (AKT pS473 AlphaLISA). Type of assay: cell-based. The method in brief: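 Serum-starved THP-1 cells (1.8×10^5/well, serum-free DMEM) treated with compounds from 4 nM to 30 μM in 2% DMSO, then stimulated and lysed.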

The target of a further assay is T2, PI3Kγ (p120γ) (Homo sapiens, UniProt P48736).
T2 construct: purchased Promega V1761
The assay can be described thus: Inhibition of PI3K kinase activity (ADP Glo), PI3Kγ. As to conditions: read-out: biochemical potency (PI3Kγ IC50). The method in brief: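 Recombinant p120γ (8 nM, 2× stock) was preincubated with compound for 1 h at rt in HEPES pH 7.4, NaCl, MgCl2 and 0.05% BSA. Reaction was started with PIP2 (0.1 mg/ml, 2×) and ATP (50 μM, 2×) and ran 60 min at rt. ADP formed was read by ADP-Glo luminescence, and IC50 came from a 4-parameter fit.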
On the technique in general: In ADP-Glo the light output rises with the ADP produced.

Where [1] appears, read: AKT pS473, read-out: cellular potency (PI3Kγ IC50).
Setting [2] is: Table 2, rhMCP-1 stimulated AKT pS473, read-out: cellular potency (PI3Kγ IC50).
Setting [3] is: Table 6, rhMCP-1 stimulated AKT pS473, read-out: cellular potency (PI3Kγ IC50).
[4] abbreviates: Table 1, rhMCP-1 stimulated AKT pS473, read-out: cellular potency (PI3Kγ IC50).
Setting [5] is: Table 3, rhMCP-1 stimulated AKT pS473, read-out: cellular potency (PI3Kγ IC50).

Results on 16 compounds are retold here after patent US20230024302A1, “2,3,5-TRISUBSTITUTED PYRAZOLO[1,5-A]PYRIMIDINE COMPOUNDS” (Arcus Biosciences, Inc., priority 2019, published 2023).

Structures are written as SMILES. Where two headings read alike, the source gives them in different places. A value given as a limit tells only on which side of the number the result lay.

T1 sequence (P48736 whole entry): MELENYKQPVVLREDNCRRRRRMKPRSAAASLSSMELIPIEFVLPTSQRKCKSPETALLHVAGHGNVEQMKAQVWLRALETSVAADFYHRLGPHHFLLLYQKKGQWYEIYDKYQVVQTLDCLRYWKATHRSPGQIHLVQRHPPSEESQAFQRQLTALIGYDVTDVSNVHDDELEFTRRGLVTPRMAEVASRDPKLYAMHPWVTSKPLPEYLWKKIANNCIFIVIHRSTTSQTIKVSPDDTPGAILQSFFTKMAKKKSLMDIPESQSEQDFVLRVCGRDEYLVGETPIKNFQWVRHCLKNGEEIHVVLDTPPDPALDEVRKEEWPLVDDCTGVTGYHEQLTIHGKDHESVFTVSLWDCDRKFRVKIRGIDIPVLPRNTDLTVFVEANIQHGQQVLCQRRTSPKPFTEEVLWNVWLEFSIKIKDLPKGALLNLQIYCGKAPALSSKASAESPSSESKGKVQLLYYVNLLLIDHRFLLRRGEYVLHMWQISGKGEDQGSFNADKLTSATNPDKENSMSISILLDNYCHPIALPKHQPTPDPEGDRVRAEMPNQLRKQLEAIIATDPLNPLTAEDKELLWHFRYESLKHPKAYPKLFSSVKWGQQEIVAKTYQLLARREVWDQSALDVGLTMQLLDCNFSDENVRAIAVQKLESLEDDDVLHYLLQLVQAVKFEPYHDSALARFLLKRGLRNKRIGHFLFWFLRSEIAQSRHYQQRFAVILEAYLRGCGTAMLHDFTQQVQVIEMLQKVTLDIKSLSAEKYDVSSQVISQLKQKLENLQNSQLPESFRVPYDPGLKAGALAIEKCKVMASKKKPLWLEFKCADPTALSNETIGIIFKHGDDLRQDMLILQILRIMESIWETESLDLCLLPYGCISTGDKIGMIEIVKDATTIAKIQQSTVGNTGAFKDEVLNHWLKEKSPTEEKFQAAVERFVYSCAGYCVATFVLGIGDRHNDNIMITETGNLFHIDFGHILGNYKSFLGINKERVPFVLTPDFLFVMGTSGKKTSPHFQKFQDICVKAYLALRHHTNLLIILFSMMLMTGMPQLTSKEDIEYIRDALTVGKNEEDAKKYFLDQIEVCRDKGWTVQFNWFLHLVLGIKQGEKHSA
T2 sequence (P48736 whole entry): as above

Turning to `C[C@@H](C1CC1)N1Cc2cc(-c3ccn4nc(N)c(C(=O)Nc5ccc(=O)[nH]c5)c4n3)cc(NS(C)(=O)=O)c2C1=O` [Example 371], the IC50 (in general, the concentration at which inhibition is half-maximal) at PI3Kγ (setting [1]) is 100 to 1000 nM; on PI3Kγ (p120γ), < 100 nM.
For `C[C@@H](C1CC1)N1Cc2cc(-c3ccn4nc(N)c(C(=O)Nc5ccc(CC(F)(F)F)nc5)c4n3)cc(NS(C)(=O)=O)c2C1=O` [Example 389] the same measures were 100 to 1000 nM and < 100 nM.
With `Cc1cc(-c2ccn3nc(N)c(C(=O)N[C@H]4CCC[C@H](O)C4)c3n2)cc2c1C(=O)N([C@@H](C)C1CC1)C2` [Example 244], the 50% inhibitory concentration (IC50) at PI3Kγ (setting [2]) was 100 to 1000 nM; at PI3Kγ (p120γ) (Table 2, p120γ), < 100 nM.
For `Cc1cc(-c2ccn3nc(N)c(C(=O)NC4CC4)c3n2)cc2c1C(=O)N(C(C)(C)CO)C2` [Example 316] the same measures were 100 to 1000 nM and < 100 nM.
As for `C[C@@H](C1CC1)N1Cc2cc(-c3ccn4nc(N)c(C(=O)Nc5cccnc5)c4n3)cc(C3CC3)c2C1=O` [Example 452], the IC50 on PI3Kγ (setting [3]) is 100 to 1000 nM; at PI3Kγ (p120γ) (Table 6, p120γ), < 100 nM.
In the case of `Cc1cc(-c2ccn3nc(N)c(C(=O)N[C@@H](CO)C4CC4)c3n2)cc2c1C(=O)N([C@@H](C)C1CC1)C2` [Example 195], the IC50 is 100 to 1000 nM on PI3Kγ (setting [2]) and < 100 nM at PI3Kγ (p120γ) (Table 2, p120γ).
On to `C[C@@H](C1CC1)N1Cc2cc(-c3ccn4nc(N)c(C(=O)N[C@@H](CO)C5CC5)c4n3)cc(C3CC3)c2C1=O` [Example 167, 2-Amino-5-{7-cyclopropyl-2-[(1S)-1-cyclopropylethyl]-1-oxo-2,3-dihydro-1H-isoindol-5-yl}-N-[(1R)-1-cyclopropyl-2-hydroxyethyl]pyrazolo[1,5-a]pyrimidine-3-carboxamide], for which the IC50 on PI3Kγ (setting [4]) is < 100 nM; at PI3Kγ (p120γ) (Table 1, p120γ), < 100 nM.
`C[C@@H](C1CC1)N1Cc2cc(-c3ccn4nc(N)c(C(=O)NC5(C)COC5)c4n3)cc(NS(C)(=O)=O)c2C1=O` [Example 79, 2-Amino-5-{2-[(1S)-1-cyclopropylethyl]-7-methanesulfonamido-1-oxo-2,3-dihydro-1H-isoindol-5-yl}-N-(3-methyloxetan-3-yl)pyrazolo[1,5-a]pyrimidine-3-carboxamide]: the IC50 on PI3Kγ (setting [4]) was < 100 nM; at PI3Kγ (p120γ) (Table 1, p120γ) it was < 100 nM.
As for `C[C@@H](C1CC1)N1Cc2cc(-c3ccn4nc(N)c(C(=O)N[C@@H]5CCCC[C@H]5O)c4n3)cc(NS(C)(=O)=O)c2C1=O` [Example 384], the figures for the IC50 on PI3Kγ (setting [1]) and on PI3Kγ (p120γ) were 100 to 1000 nM and < 100 nM, respectively.
Regarding `C[C@@H](C1CC1)N1Cc2cc(-c3ccn4nc(N)c(C(N)=O)c4n3)cc(C(F)(F)F)c2C1=O` [Example 66], the IC50 at PI3Kγ (setting [4]) is 100 to 1000 nM; on PI3Kγ (p120γ) (Table 1, p120γ) it was < 100 nM.
Turning to `C[C@@H](C1CC1)N1Cc2cc(-c3ccn4nc(N)c(C(=O)N[C@H]5CC[C@H](N)CC5)c4n3)cc(C(F)(F)F)c2C1=O` [Example 368], the IC50 on PI3Kγ (setting [5]) is 100 to 1000 nM; on PI3Kγ (p120γ) (Table 3, p120γ), < 100 nM.
For `Cc1cc(-c2ccn3nc(N)c(C(=O)NC4CC4)c3n2)cc2c1C(=O)N([C@@H](C1CC1)C(F)(F)F)C2` [Example 301], the IC50 on PI3Kγ (setting [2]) is 100 to 1000 nM; on PI3Kγ (p120γ) (Table 2, p120γ), < 100 nM.
For the compound `C[C@H](N1Cc2cc(-c3ccn4nc(N)c(C(=O)N[C@@H](CO)C5CC5)c4n3)cc(N3CC[C@@H](O)C3)c2C1=O)C(F)(F)F` [Example 434], the half-inhibitory concentration (IC50) on PI3Kγ (setting [3]) is 100 to 1000 nM; at PI3Kγ (p120γ) (Table 6, p120γ) it was < 100 nM.
`Cc1cc(-c2ccn3nc(N)c(C(=O)NC4CC4)c3n2)cc2c1C(=O)N([C@@H](CO)C1CC1)C2` [Example 311]: the IC50 at PI3Kγ (setting [2]) is 100 to 1000 nM; on PI3Kγ (p120γ) (Table 2, p120γ), < 100 nM.
For `C[C@@H](C1CC1)N1Cc2cc(-c3ccn4nc(N)c(C(=O)NC5CC5c5ccccc5)c4n3)cc(C(F)(F)F)c2C1=O` (some centres unmarked) [Example 365], the half-inhibitory concentration (IC50) at PI3Kγ (setting [5]) was 100 to 1000 nM; on PI3Kγ (p120γ) (Table 3, p120γ) it was < 100 nM.
Take `C[C@H](N1Cc2cc(-c3ccn4nc(N)c(C(=O)NC5CC5)c4n3)cc(OC(F)(F)F)c2C1=O)C(F)(F)F` [Example 415]: the IC50 was 100 to 1000 nM on PI3Kγ (setting [3]) and < 100 nM at PI3Kγ (p120γ) (Table 6, p120γ).
